The values that follow come from ChEMBL document CHEMBL1123498, “Structural studies on bioactive compounds. 4. A structure-antitumor activity study on analogues of N-methylformamide” (J Med Chem, 1986).

A word on the T/C: it is the result in the treated group divided by that in the control group, in per cent. The LD50 is the dose expected to kill half of the subjects tested. A low value points to greater toxicity.

Series [1] concerns Mus musculus. The series is described as follows: Antitumor activity was evaluated for the compound against the M5076 reticulum cell sarcoma in mice and the % T/C(treated/control) value was calculated at optimal dose of 1000 mg/kg. It counts as functional.
Series [2] relates to Mus musculus. Kind of series: Antitumor activity was evaluated against the M5076 reticulum cell sarcoma in mice at dose of 2500-600 mg/kg per day. In kind it is ADME, organism-based.
Series [3] relates to Mus musculus. Kind of series: Antitumor activity was evaluated against the M5076 reticulum cell sarcoma in mice measured as Control tumor volume for the treated at the optimal dose 1000 mg/Kg/day. It counts as functional.
Series [4] has as its system Mus musculus. Kind of series: Antitumor activity was evaluated against the M5076 reticulum cell sarcoma in mice measured as mean tumor volume for the treated at the optimal dose 1000 mg/Kg/day. In kind it is functional.
In series [5] the test system is Mus musculus. Kind of series: Antitumor activity was evaluated against the M5076 reticulum cell sarcoma in mice measured as Control tumor volume for the treated at the optimal dose 400 mg/Kg day. It counts as functional.
The test system of series [6] is Mus musculus. Kind of series: Antitumor activity was evaluated against the M5076 reticulum cell sarcoma in mice at dose of 800-100 mg/kg per day. In kind it is ADME, organism-based.
Series [7] deals with Mus musculus. Kind of series: Antitumor activity was evaluated against the M5076 reticulum cell sarcoma in mice measured as mean tumor volume for the treated at the optimal dose 400 mg/kg day. It counts as functional.
In series [8] the test system is Mus musculus. Kind of series: Antitumor activity was evaluated against the TLX5 lymphoma in mice measured as treated to control at optimal dose. 400 mg/Kg/day. It counts as functional.
In series [9] the test system is Mus musculus. Kind of series: Antitumor activity was evaluated against the TLX5 lymphoma in mice measured for control as death day at a optimal doses of 800 mg/Kg/day. In kind it is functional.
Series [10] relates to Mus musculus. The series is described as follows: Antitumor activity was evaluated against the TLX5 lymphoma measured as mean death day for the treated at a optimal dose 800 mg/Kg/day. In kind it is functional.
In series [11] the test system is Mus musculus. Kind of series: Antitumor activity was evaluated against the M5076 reticulum cell sarcoma in mice measured as mean tumor volume for the treated at the optimal dose 100 mg/Kg/day. It counts as functional.
Series [12] concerns Mus musculus. The series is described as follows: Antitumor activity was evaluated against the M5076 reticulum cell sarcoma in mice at dose of 400-6.25 mg/kg per day. It counts as ADME, organism-based.
The test system of series [13] is Mus musculus. Kind of series: Antitumor activity was evaluated against the TLX5 lymphoma measured as mean death day for the treated at a optimal dose of 100 mg/Kg/day. It counts as functional.
Series [14] concerns Mus musculus. Kind of series: Antitumor activity was evaluated against the TLX5 lymphoma measured as mean death day for the treated at a optimal dose of 800 mg/Kg/day. It counts as functional.
Series [15] deals with Mus musculus. The series is described as follows: Antitumor activity was evaluated against the TLX5 lymphoma in mice measured for control as death day at a optimal dose of 200 mg/Kg/day. In kind it is functional.
For series [16], the system named is Mus musculus. The series is described as follows: Antitumor activity was evaluated against the TLX5 lymphoma in mice measured as treated to control at a optimal dose of 100 mg/Kg/day. In kind it is functional.
The test system of series [17] is Mus musculus. Kind of series: Antitumor activity was evaluated against the TLX5 lymphoma in mice measured for control as death day at a optimal dose of 100 mg/Kg/day. It counts as functional.
Series [18] concerns Mus musculus. Kind of series: Antitumor activity was evaluated for the compound against the M5076 reticulum cell sarcoma in mice and the % T/C(treated/control) value was calculated at optimal dose of 200 mg/kg. It counts as functional.
Series [19] concerns Mus musculus. Kind of series: Antitumor activity was evaluated against the TLX5 lymphoma measured as mean death day for the treated at a optimal dose of 400 mg/Kg/day. It counts as functional.
In series [20] the test system is Mus musculus. The series is described as follows: Antitumor activity was evaluated against the TLX5 lymphoma in mice measured as treated to control at a optimal dose of 200 mg/Kg/day. In kind it is functional.
Series [21] relates to Mus musculus. The series is described as follows: Antitumor activity was evaluated against the M5076 reticulum cell sarcoma in mice measured as Control tumor volume for the treated at the optimal dose 50 mg/kg/day. In kind it is functional.
In series [22] the test system is Mus musculus. The series is described as follows: Antitumor activity was evaluated against the TLX5 lymphoma in mice measured for control as death day at a optimal dose of 800 mg/Kg/day. In kind it is functional.
Series [23] has as its system Mus musculus. The series is described as follows: Antitumor activity was evaluated against the TLX5 lymphoma in mice measured as treated to control at a optimal dose of 800 mg/Kg/day. In kind it is functional.
The test system of series [24] is Mus musculus. Kind of series: Antitumor activity was evaluated against the M5076 reticulum cell sarcoma in mice measured as mean tumor volume for the treated at the optimal dose 50 mg/Kg/day. In kind it is functional.
In series [25] the test system is Mus musculus. The series is described as follows: Antitumor activity was evaluated against the TLX5 lymphoma in mice measured as treated to control at a optimal dose of 400 mg/Kg/day. In kind it is functional.
Series [26] relates to Mus musculus. The series is described as follows: Antitumor activity was evaluated for the compound against the M5076 reticulum cell sarcoma in mice and the % T/C(treated/control) value was calculated at optimal dose of 100 mg/kg. It counts as functional.
For series [27], the system named is Mus musculus. The series is described as follows: Antitumor activity was evaluated against the TLX5 lymphoma measured as mean death day for the treated at a optimal dose of 200 mg/Kg/day. In kind it is functional.
The subject of series [28] is Mus musculus. Kind of series: Antitumor activity was evaluated against the M5076 reticulum cell sarcoma in mice measured as Control tumor volume for the treated at the optimal dose 25 mg/Kg/day. It counts as functional.
Series [29] relates to Mus musculus. The series is described as follows: Antitumor activity was evaluated for the compound against the M5076 reticulum cell sarcoma in mice and the % T/C(treated/control) value was calculated at optimal dose of 25 mg/kg. It counts as functional.
Series [30] has as its system Mus musculus. The series is described as follows: Antitumor activity was evaluated against the M5076 reticulum cell sarcoma in mice measured as mean tumor volume for the treated at the optimal dose 25 mg/Kg/day. It counts as functional.
Series [31] has as its system Mus musculus. The series is described as follows: Antitumor activity was evaluated for the compound against the M5076 reticulum cell sarcoma in mice and the % T/C(treated/control) value was calculated at optimal dose of 50 mg/kg. It counts as functional.
For series [32], the system named is Mus musculus. The series is described as follows: Antitumor activity was evaluated against the M5076 reticulum cell sarcoma in mice measured as Control tumor volume for the treated at the optimal dose 200 mg/Kg/day. It counts as functional.
Series [33] deals with Mus musculus. The series is described as follows: Antitumor activity was evaluated against the M5076 reticulum cell sarcoma in mice measured as Control tumor volume for the treated at the optimal dose 100 mg/kg/day. It counts as functional.
Series [34] concerns Mus musculus. The series is described as follows: Antitumor activity was evaluated against the TLX5 lymphoma in mice measured for control as death day at the below optimal dose 400 mg/Kg/day. In kind it is functional.
For series [35], the system named is Mus musculus. The series is described as follows: Antitumor activity was evaluated against the M5076 reticulum cell sarcoma in mice measured as Control tumor volume for the treated at the optimal dose 50 mg/Kg/day. It counts as functional.
The test system of series [36] is Mus musculus. Kind of series: Antitumor activity was evaluated against the M5076 reticulum cell sarcoma in mice at dose of 200-25 mg/kg per day. In kind it is ADME, organism-based.
Series [37] has as its system Mus musculus. Kind of series: Antitumor activity was evaluated against the TLX5 lymphoma in mice measured as treated to control at optimal dose. 100 mg/Kg/day. It counts as functional.
Series [38] concerns Mus musculus. Kind of series: Antitumor activity was evaluated against the TLX5 lymphoma in mice measured for control as death day at a optimal dose 400 mg/Kg/day. It counts as functional.
Series [39] deals with Mus musculus. The series is described as follows: Antitumor activity was evaluated against the TLX5 lymphoma measured as mean death day for the treated at a optimal dose 400 mg/Kg/day. It counts as functional.
Series [40] relates to Mus musculus. The series is described as follows: Antitumor activity was evaluated against the TLX5 lymphoma in mice measured as treated to control at optimal dose. 800 mg/Kg/day. It counts as functional.
Series [41] concerns Mus musculus. Kind of series: Antitumor activity was evaluated against the M5076 reticulum cell sarcoma in mice at dose of 150-6.25 mg/kg per day. In kind it is ADME, organism-based.
Series [42] relates to Mus musculus. The series is described as follows: Antitumor activity was evaluated against the M5076 reticulum cell sarcoma in mice at dose of 1500-600 mg/kg per day. It counts as functional.
Series [43] has as its system Mus musculus. Kind of series: Antitumor activity was evaluated against the M5076 reticulum cell sarcoma in mice at dose of 400-100 mg/kg per day. In kind it is ADME, organism-based.
Series [44] deals with Mus musculus. The series is described as follows: Antitumor activity was evaluated against the M5076 reticulum cell sarcoma in mice measured as mean tumor volume for the treated at the optimal dose 200 mg/Kg/day. In kind it is functional.

Molecules are shown by their SMILES.

As to `O=CNCO`, in series [1], the T/C was 38%. In [2], this compound came in with an LD10 of 1580 mg/kg/day and a 50% lethal dose (LD50) of 1930 mg/kg/day. In [3], this compound had a Control tumor volume of 2.1. Also, the Mean tumor volume in series [4] was 0.8.
As for `CNC(=O)c1ccccc1`, the Control tumor volume in series [5] was found to be 1.9. For the same compound, in series [6], the LD10 was found to be 450 mg/kg/day and the LD50 came out at 650 mg/kg/day. The same compound had a Mean tumor volume in series [7] of 0.8.
Consider `[2H]C([2H])([2H])NC=O`, for which the T/C in [8] is 142%. Also, the Control death day in [9] is 13.2. Besides, the “Mean day of death” value in series [10] is recorded as 18.8.
Take `CNC=O`: the values for the Mean tumor volume in [11], in series [24] and in series [30] were 0.3, 0.9 and 2.1, respectively. This compound registered an LD10 in series [12] of 220 mg/kg/day. The compound further had an LD50 in series [12] of 300 mg/kg/day. The “Mean day of death” value in series [13] is given as 11; in series [14], 17.6; in series [19] it was 16.4; in series [27], 12.4. Besides, the Control death day in [15], in series [17], in series [22] and in series [34] was 9.2 each time. Moreover, the T/C is 120% in [16]; 0% in series [18]; 135% in series [20]; 191% in [23]; 178% in series [25]; 11% in series [26]. Besides, the T/C in series [29] is given as 70%; in [31], 33%. Also, the Control tumor volume in series [21], in series [28], in series [32] and in series [33] was 2.7 throughout.
With `CN(C)/C=C\[N+](=O)[O-]`, in [13], the “Mean day of death” value was determined as 15.4. In series [35], this compound gave a Control tumor volume of 1.5. This compound came in with a Control death day in series [17] of 11.1. In [24], the Mean tumor volume was 0.5. Moreover, the LD10 in series [36] came to 55 mg/kg/day. Further, the 50% lethal dose (LD50) in series [36] was found to be 75 mg/kg/day. Also, the values for the T/C in [37] and in [31] were 139% and 35%, respectively.
With `CCNC=O`, the Control death day in [38] came to 9.2. Also, in series [39], the “Mean day of death” value turned out to be 12.6. Moreover, in series [40], the T/C amounted to 137%.
For `CNC(=O)ON(C(C)=O)C(=O)NC` [CARACEMIDE], the Control tumor volume in series [35] is listed as 2.4. In addition, the Mean tumor volume in [24] was found to be 0.9. The T/C in [31] was 38%. In [41], this compound registered an LD10 of 53 mg/kg/day and an LD50 of 63 mg/kg/day.
For `CN(C)C=O` [DIMETHYLFORMAMIDE], the T/C in series [1] is listed as 40%. The Control tumor volume in series [3] is 2.5. For the same compound, in [42], the LD10 was found to be 1130 mg/kg/day and the LD50 came out at 1280 mg/kg/day. In series [4], this compound showed a Mean tumor volume of 1.
Regarding `NC=O` [FORMAMIDE], the “Mean day of death” value in series [14] was determined as 11.2. In series [43], the LD10 is 200 mg/kg/day and the median lethal dose (LD50) was 270 mg/kg/day. Also, the T/C in [18] is reported as 38%. Also, the Control death day in series [9] stood at 9.1. Also, the Mean tumor volume in [44] is listed as 0.8. In addition, the Control tumor volume in series [32] was 2.1. In addition, in [40], the T/C is on record as 123%.
